For orientation: IC50 means the concentration at which inhibition is half-maximal.

Where a name gives a salt, the structure may show the parent alone. Read-outs that look alike come from different tables or passages of the source.

The target in this experiment is T1, DPP-IV (Homo sapiens, UniProt P27487).
T1 construct: Soluble human DPP-IV lacking the transmembrane anchor (Gly31-Pro766) was expressed in a recombinant YEAST-strain; Pre-Pro-alpha-mating factor leader (secretion fusion) (N, cleaved yes); made in house
The experiment is described as follows: Inhibition of DPP-IV peptidase activity, continuous fluorimetric assay (Gly-Pro-AMC cleavage). Type of experiment: biochemical, human and porcine. To be noted: 50 pM DPP-IV, 16 μM Gly-Pro-AMC, pH 7.4, 25° C., values grouped in 3 classes. The procedure:
Inhibition of DPP-IV peptidase activity was monitored with a continuous fluorimetric assay. This assay is based on the cleavage of the substrate Gly-Pro-AMC (Bachem) by DPP-IV, releasing free AMC. The assay is carried out in 96-well microtiterplates. In a total volume of 100 μL, compounds are preincubated with 50 pM DPP-IV employing a buffer containing 10 mM Hepes, 150 mM NaCl, 0.005% Tween 20 (pH 7.4). […] The final concentration of DMSO is 1%. The inhibitory potential of the compounds were determined.
Soluble human DPP-IV lacking the transmembrane anchor (Gly31-Pro766) was expressed in a recombinant YEAST-strain as Pre-Pro-alpha-mating fusion. The secreted product (rhuDPP-IV-Gly31-Pro766) was purified from fermentation broth (>90% purity).

Setting [1] is: inhibition of DPP-IV peptidase activity, read-out: IC50.

T1 sequence (P27487 31-766): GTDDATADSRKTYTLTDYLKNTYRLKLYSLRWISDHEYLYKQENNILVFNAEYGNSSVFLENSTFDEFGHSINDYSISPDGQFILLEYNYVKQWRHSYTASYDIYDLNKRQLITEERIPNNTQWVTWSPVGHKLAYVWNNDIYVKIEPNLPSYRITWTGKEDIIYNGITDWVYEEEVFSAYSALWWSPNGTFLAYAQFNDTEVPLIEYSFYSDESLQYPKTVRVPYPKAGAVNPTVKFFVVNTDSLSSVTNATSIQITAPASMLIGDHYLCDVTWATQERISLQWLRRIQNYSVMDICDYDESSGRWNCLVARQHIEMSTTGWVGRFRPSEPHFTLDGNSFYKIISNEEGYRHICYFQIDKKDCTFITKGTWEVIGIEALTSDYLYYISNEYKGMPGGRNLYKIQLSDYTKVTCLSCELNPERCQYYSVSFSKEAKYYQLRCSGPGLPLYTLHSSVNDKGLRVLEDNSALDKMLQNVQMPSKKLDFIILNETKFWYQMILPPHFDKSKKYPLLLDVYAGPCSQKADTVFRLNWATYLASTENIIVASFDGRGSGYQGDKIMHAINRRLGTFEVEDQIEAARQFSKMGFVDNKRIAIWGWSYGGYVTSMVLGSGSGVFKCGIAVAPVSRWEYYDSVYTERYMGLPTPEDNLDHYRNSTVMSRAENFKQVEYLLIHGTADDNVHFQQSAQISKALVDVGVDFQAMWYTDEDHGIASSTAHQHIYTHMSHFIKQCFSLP

On to `CC(CNC(=O)C[C@H](N)Cc1ccccc1F)c1ccc(Cl)cc1` (single isomer, unassigned) [Example 107], for which the half-inhibitory concentration (IC50) under setting [1] was 101 to 1000 nM.

For `N[C@@H](CC(=O)NCc1ccc(OC(F)F)cc1)Cc1ccccc1F` [Example 153], under setting [1], the IC50 is 1000 to 2000 nM.

For `Cc1ccccc1-n1nc(C)c(CNC(=O)C[C@H](N)Cc2ccccc2F)c1C` [Example 151], the IC50 under setting [1] is 101 to 1000 nM.

`COc1ccc(-c2cc(CNC(=O)C[C@H](N)Cc3ccccc3F)on2)cc1` [Example 57]: the half-maximal inhibitory concentration (IC50) under setting [1] lay within 101 to 1000 nM.

Consider `N[C@@H](CC(=O)NCc1ccccn1)Cc1ccccc1F` [Example 52], for which, under setting [1], the IC50 was in the range of 101 to 1000 nM.

In the case of `N[C@@H](CC(=O)NCCc1cccnc1)Cc1ccccc1F` [Example 83], the IC50 under setting [1] fell in the range of 101 to 1000 nM.

On to `Cc1ccccc1CNC(=O)C[C@H](N)Cc1ccccc1F` [Example 49], for which the IC50 under setting [1] lay within 101 to 1000 nM.

Take `N[C@@H](CC(=O)NCCc1cccc(Cl)c1)Cc1ccccc1F` [Example 112]: the IC50 under setting [1] lay in the range of 101 to 1000 nM.

On to `N[C@@H](CC(=O)NC(CN1CCOCC1)c1ccccc1)Cc1ccccc1F` (single isomer, unassigned) [Example 86], for which, under setting [1], the IC50 was 101 to 1000 nM.

As to `CN(C(=O)C[C@H](N)Cc1ccccc1F)[C@@H](CN1CCCC1)c1ccccc1` [Example 179, (R)-3-Amino-4-(2-fluoro-phenyl)-N-methyl-N-(1-phenyl-2-pyrrolidin-1-yl-ethyl)-butyramide Formic Acid], for the setting “IC50, inhibition of DPP-IV peptidase activity”, the IC50 lay in the range of 101 to 1000 nM.

Consider `N[C@@H](CC(=O)NCc1ccc2c(c1)CCO2)Cc1ccccc1F` [Example 56], for which, under setting [1], the IC50 lay within 101 to 1000 nM.

On to `N[C@@H](CC(=O)NC(CN1CCCC1)c1ccccc1)Cc1ccccc1F` (single isomer, unassigned) [Example 87], for which the concentration for half-maximal inhibition (IC50) under setting [1] was less than 100 nM.

Turning to `N[C@@H](CC(=O)NCCc1ccccn1)Cc1ccccc1F` [Example 40], the IC50 under setting [1] is 101 to 1000 nM.

As for `NC(CC(=O)NCCc1cccc(F)c1)Cc1ccccc1F` (stereo not drawn) [Example 111], the IC50 under setting [1] is 1000 to 2000 nM.

`N[C@@H](CC(=O)NCc1ccncc1)Cc1ccccc1F` [Example 48]: under setting [1], the half-maximal inhibitory concentration (IC50) lay within 101 to 1000 nM.

As for `N[C@@H](CC(=O)NCc1ccccc1F)Cc1ccccc1F` [Example 117], under setting [1], the concentration for half-maximal inhibition (IC50) lay within 101 to 1000 nM.

On to `CN(CC(c1ccccc1)N1CCOCC1)C(=O)C[C@H](N)Cc1ccccc1F` (stereo partly drawn) [Example 177], for which, under setting [1], the half-inhibitory concentration (IC50) is less than 100 nM.

`NC(CC(=O)NC1c2ccccc2CC1O)Cc1ccccc1F` (stereo not drawn) [Example 43]: the IC50 under setting [1] was 1000 to 2000 nM.

On to `NC(CC(=O)N(Cc1ccccc1F)C1CC1)Cc1ccccc1F` (stereo not drawn) [Example 144], for which the half-inhibitory concentration (IC50) under setting [1] was 101 to 1000 nM.

For `N[C@@H](CC(=O)NCc1cccc(-n2cccn2)c1)Cc1ccccc1F` [Example 171], the IC50 under setting [1] was 101 to 1000 nM.

Regarding `Cc1noc(C)c1CCNC(=O)C[C@H](N)Cc1ccccc1F` [Example 80], the half-inhibitory concentration (IC50) under setting [1] is 101 to 1000 nM.

With `N[C@@H](CC(=O)NCc1cccc(C(=O)NCc2ccccc2F)c1)Cc1ccccc1F` [Example 33], the IC50 under setting [1] lay within 101 to 1000 nM.

For the compound `CC(NC(=O)C[C@H](N)Cc1ccccc1F)c1ccc(-n2ccnc2)cc1` (stereo partly drawn) [Example 174], the half-inhibitory concentration (IC50) under setting [1] is 101 to 1000 nM.

For the compound `N[C@@H](CC(=O)NC(CN1CCCC1)c1ccccc1)Cc1ccccc1F` (single isomer, unassigned) [Example 91], the 50% inhibitory concentration (IC50) under setting [1] lay in the range of 101 to 1000 nM.

For the compound `C[C@@H](CNC(=O)C[C@H](N)Cc1ccccc1F)c1ccccc1` [Example 94], under setting [1], the IC50 lay within 101 to 1000 nM.

`C[S+]([O-])c1ccccc1CNC(=O)C[C@H](N)Cc1ccccc1F` (single isomer, unassigned) [Example 137]: the half-inhibitory concentration (IC50) under setting [1] is 101 to 1000 nM.

Take `N[C@@H](CC(=O)NCc1cccc(C(=O)NCc2ccc(S(N)(=O)=O)cc2)c1)Cc1ccccc1F` [Example 35]: under setting [1], the concentration for half-maximal inhibition (IC50) lay within 101 to 1000 nM.

With `N[C@@H](CC(=O)NCc1c(Cl)cccc1Oc1ccccc1)Cc1ccccc1F` [Example 71], the concentration for half-maximal inhibition (IC50) under setting [1] is 101 to 1000 nM.

As for `NC(CC(=O)NCC(c1ccccc1Cl)N1CCCC1)Cc1ccccc1F` (single isomer, unassigned) [Example 134], under setting [1], the IC50 was less than 100 nM.

Regarding `N[C@@H](CC(=O)NCc1cccc2ncccc12)Cc1ccccc1F` [Example 138], the 50% inhibitory concentration (IC50) under setting [1] lay in the range of 101 to 1000 nM.

Take `COc1cccc(CCNC(=O)C[C@H](N)Cc2ccccc2F)c1` [Example 81]: the half-inhibitory concentration (IC50) under setting [1] is 1000 to 2000 nM.

With `N[C@@H](CC(=O)NCc1ccc2c(c1)OCCO2)Cc1ccccc1F` [Example 61], the half-maximal inhibitory concentration (IC50) under setting [1] was in the range of 101 to 1000 nM.

`N[C@@H](CC(=O)NCc1cccc2cnccc12)Cc1ccccc1F` [Example 116]: the IC50 under setting [1] was 1000 to 2000 nM.

Take `Cc1cc(CNC(=O)C[C@H](N)Cc2ccccc2F)no1` [Example 62]: the half-maximal inhibitory concentration (IC50) under setting [1] fell in the range of 101 to 1000 nM.

For `N[C@@H](CC(=O)NCc1ccc(-n2cccn2)cc1)Cc1ccccc1F` [Example 63], the IC50 under setting [1] is less than 100 nM.

As for `C[C@H](CNC(=O)C[C@H](N)Cc1ccccc1F)c1ccccc1` [Example 93], the IC50 under setting [1] was in the range of 1000 to 2000 nM.

As for `N[C@@H](CC(=O)NCCc1ccc(Cl)c(Cl)c1)Cc1ccccc1F` [Example 92], the IC50 under setting [1] was in the range of 101 to 1000 nM.

Take `CN(C)CCOc1ccc(CNC(=O)C[C@H](N)Cc2ccccc2F)cc1` [Example 143]: the IC50 under setting [1] lay in the range of 1000 to 2000 nM.

On to `N[C@@H](CC(=O)NCc1ccc(C(F)(F)F)cc1)Cc1ccccc1F` [Example 68], for which, under setting [1], the concentration for half-maximal inhibition (IC50) was 101 to 1000 nM.

As for `N[C@@H](CC(=O)NCc1cc(-c2ccc(Cl)cc2)no1)Cc1ccccc1F` [Example 152], the IC50 under setting [1] lay within 101 to 1000 nM.

For the compound `N[C@@H](CC(=O)NCC1CCCc2ccccc21)Cc1ccccc1F` (single isomer, unassigned) [Example 78], the half-inhibitory concentration (IC50) under setting [1] was in the range of 101 to 1000 nM.

Turning to `NC(CC(=O)NC1CCc2ccccc21)Cc1ccccc1F` (stereo not drawn) [Example 120], the 50% inhibitory concentration (IC50) under setting [1] was 1000 to 2000 nM.

Take `NC(=O)c1ccc(CNC(=O)C[C@H](N)Cc2ccccc2F)cc1` [Example 31, 4-{[(3R)-3-Amino-4-(2-fluoro-phenyl)-butyrylamino]-methyl}-benzamide.trifluoroacetate Salt]: the IC50 under setting [1] was in the range of 101 to 1000 nM.

For `CS(=O)(=O)c1ccc(CNC(=O)C[C@H](N)Cc2ccccc2F)cc1` [Example 141], the half-maximal inhibitory concentration (IC50) under setting [1] was in the range of 101 to 1000 nM.

Regarding `N[C@@H](CC(=O)NCc1ccc(Cl)cc1Cl)Cc1ccccc1F` [Example 44], the IC50 under setting [1] lay in the range of 101 to 1000 nM.

Take `Cc1ccccc1CN(C)C(=O)C[C@H](N)Cc1ccccc1F` [Example 37, 3-Amino-4-(2-fluoro-phenyl)-N-methyl-N-(2-methyl-benzyl)-butyramide Hydrochloride]: under setting [1], the half-inhibitory concentration (IC50) lay in the range of 101 to 1000 nM.

`N[C@H](Cc1ccccc1F)CS(=O)(=O)NCc1ccc(C(F)(F)F)nc1` [Example 191, (R)-2-Amino-3-(2-fluoro-phenyl)-Propane-1-sulphonic acid (6-trifluoromethyl-pyridin-3-ylmethyl)-amide]: the IC50 under setting [1] fell in the range of 101 to 1000 nM.

Take `NC(CC(=O)NC1CCCc2ccccc21)Cc1ccccc1F` (stereo not drawn) [Example 45]: under setting [1], the IC50 lay within 101 to 1000 nM.

As to `N[C@@H](CC(=O)NC(c1ccccc1)c1ccccc1)Cc1ccccc1F` [Example 47], the 50% inhibitory concentration (IC50) under setting [1] lay in the range of 101 to 1000 nM.

For the compound `CN1CCN(CC(NC(=O)C[C@H](N)Cc2ccccc2F)c2ccccc2)CC1` (stereo partly drawn) [Example 159], under setting [1], the IC50 lay within 101 to 1000 nM.

As for `N[C@@H](CC(=O)NCC(c1ccccc1Cl)N1CCCC1)Cc1ccccc1F` (single isomer, unassigned) [Example 132], under setting [1], the concentration for half-maximal inhibition (IC50) was 101 to 1000 nM.

For `N[C@@H](CC(=O)NCCNC(=O)c1ccccn1)Cc1ccccc1F` [Example 148], the 50% inhibitory concentration (IC50) under setting [1] was in the range of 101 to 1000 nM.

For the compound `CN1CCN(c2ccc(CNC(=O)C[C@H](N)Cc3ccccc3F)cc2)CC1` [Example 127], the IC50 under setting [1] was 101 to 1000 nM.

Consider `N[C@H](Cc1ccccc1F)CS(=O)(=O)NCc1cccc(C(F)(F)F)c1` [Example 192, (R)-2-Amino-3-(2-fluoro-phenyl)-propane-1-sulphonic acid 3-trifluoromethyl-benzyl-amide], for which the half-maximal inhibitory concentration (IC50) under setting [1] is 101 to 1000 nM.

For the compound `CN(Cc1ccccc1F)C(=O)C[C@H](N)Cc1ccccc1F` [Example 36, (3R)-Amino-N-(2-fluoro-benzyl)-4-(2-fluoro-phenyl)-N-methyl-butyramide Hydrochloride], the IC50 under setting [1] lay within 101 to 1000 nM.

Take `N[C@@H](CC(=O)NCc1cccc(Cl)c1)Cc1ccccc1F` [Example 70]: the IC50 under setting [1] was in the range of 101 to 1000 nM.

As for `COc1ccc(CN(C)C(=O)C[C@H](N)Cc2ccccc2F)cc1` [Example 126], under setting [1], the half-maximal inhibitory concentration (IC50) is 101 to 1000 nM.

With `N[C@@H](CC(=O)NCc1cccnc1)Cc1ccccc1F` [Example 58], the IC50 under setting [1] was in the range of 101 to 1000 nM.

Turning to `NC(CC(=O)NC(CN1CCCC1)c1ccccc1)Cc1ccccc1F` (single isomer, unassigned) [Example 135], under setting [1], the IC50 was less than 100 nM.

`CN(Cc1ccccc1Cl)C(=O)C[C@H](N)Cc1ccccc1F` [Example 123]: the IC50 under setting [1] was in the range of 101 to 1000 nM.

With `N[C@@H](CC(=O)N(Cc1cccnc1)C1CC1)Cc1ccccc1F` [Example 145], under setting [1], the IC50 lay within 101 to 1000 nM.

Consider `CC(C)c1ccc(CNC(=O)C[C@H](N)Cc2ccccc2F)cc1` [Example 73], for which the half-inhibitory concentration (IC50) under setting [1] is 101 to 1000 nM.

On to `N[C@@H](CC(=O)NCC(c1cccc(Cl)c1)N1CCCC1)Cc1ccccc1F` (stereo partly drawn) [Example 172], for which, under setting [1], the IC50 lay within 101 to 1000 nM.

As to `COc1ccc([C@@H](C)NC(=O)C[C@H](N)Cc2ccccc2F)cc1` [Example 99], under setting [1], the half-inhibitory concentration (IC50) is 1000 to 2000 nM.

With `N[C@@H](CC(=O)NCC(c1ccccc1)N1CCCC1)Cc1ccccc1F` (single isomer, unassigned) [Example 131], under setting [1], the half-inhibitory concentration (IC50) lay within 101 to 1000 nM.

As for `N[C@@H](CC(=O)NCc1cccc(-c2ccccc2)c1)Cc1ccccc1F` [Example 64], the IC50 under setting [1] fell in the range of 1000 to 2000 nM.

The record behind these values is US20070197522A1, “Dpp-iv inhibitors” (priority 2004, published 2007).
